Results taken from US11667668B2, “Compositions and methods for treating CNS disorders” (Sage Therapeutics, Inc., priority 2017, dated 2023).

Biological target: rat brain cortical membranes ([35S]-TBPS binding; GABAA receptor)
Test: Steroid inhibition of [35S]-TBPS binding
Conditions: 3 nM [35S]-TBPS, in the presence of 5 mM GABA, 90 min at room temp
Description: [35S]-t-Butylbicyclophosphorothionate (TBPS) binding assays using rat brain cortical membranes in the presence of 5 mM GABA has been described (Gee et al, J. Pharmacol. Exp. Ther. 1987, 241, 346-353; Hawkinson et al, Mol. Pharmacol. 1994, 46, 977-985; Lewin, A. H et al., Mol. Pharmacol. 1989, 35, 189-194).
Briefly, cortices are rapidly removed following decapitation of carbon dioxide-anesthetized Sprague-Dawley rats (200-250 g). The cortices are homogenized in 10 volumes of ice-cold 0.32 M sucrose using a glass/teflon homogenizer and centrifuged at 1500×g for 10 min at 4° C. The resultant supernatants are centrifuged at 10,000×g for 20 min at 4° C. to obtain the P2 pellets. The P2 pellets are resuspended in 200 mM NaCl/50 mM Na—K phosphate pH 7.4 buffer and centrifuged at 10,000×g for 10 min at 4° C. This washing procedure is repeated twice and the pellets are resuspended in 10 volumes of buffer. Aliquots ([…]) of the membrane suspensions are incubated with 3 nM [35S]-TBPS and 5 mL aliquots of test drug dissolved in dimethyl sulfoxide (DMSO) (final 0.5%) in the presence of 5 mM GABA. The incubation is brought to a final volume of 1.0 mL with buffer. Nonspecific binding is determined in the presence of […] and ranged from 15 to 25%. […] Filter bound radioactivity is measured by liquid scintillation spectrometry. […]

Structure (SMILES)	IC50
[2H]C([2H])([2H])[C@@]1(O)CC[C@H]2[C@H](CC[C@@H]3[C@@H]2CC[C@]2(C)[C@@H](C(=O)Cn4cc(C#N)cn4)CC[C@@H]32)C1 [Compound 1, 1-(2-((3R,5R,8R,9R,10S,13S,14S,17S)-3-hydroxy-13-methyl-3-(methyl-d3)hexadecahydro-1H-cyclopenta[a]phenanthren-17-yl)-2-oxoethyl)-1H-pyrazole-4-carbonitrile]	< 10 nM
[2H][C@]1(C(=O)Cn2cc(C#N)cn2)CC[C@H]2[C@@H]3CC[C@@H]4C[C@](C)(O)CC[C@@H]4[C@H]3CC[C@@]21C [Compound A10, 1-(2-((3R,5R,8R,9R,10S,13S,14S,17S)-3-hydroxy-3,13-dimethylhexadecahydro-1H-cyclopenta[a]phenanthren-17-yl-17-d)-2-oxoethyl)-1H-pyrazole-4-carbonitrile]	< 10 nM
